{
  "source": "patent EP0887348A1",
  "about": "“Bis-Indole derivatives having antimetastatic activity, a process for their preparation and pharmaceutical compositions containing them” (Boehringer Mannheim Italia S.p.A., priority 1997, dated 1998)",
  "test_system": "Lewis Lung (3LL) murine carcinoma",
  "format": "in vivo, Female mice C57BL/6N",
  "method": "The \"in vivo\" testing was performed against the Lewis Lung (3LL) murine carcinoma according to the following protocol.\nFemale mice C57BL/6N were inoculated intrafootpad with tumor fragments at day 0. At day 11 the mice were anesthetized and their tumors removed surgically proximal to the popliteale limph nodes. Animals were treated intraperitoneally with the compounds of the invention from one day after surgery until the end of the experiment, day 22 (post-surgery treatment at days 12-15, 18-22). All the compounds were suspended in 0.5% methylcellulose. The mean number of the pulmonary metastases and the mean weight thereof were determined. The toxicity of the compounds of the invention at the administered dosage was also checked, as number of deaths/total no. of treated mice by the end of the experiment.",
  "data": [
    {"smiles": "c1cncc(C(c2c[nH]c3ccccc23)c2c[nH]c3ccccc23)c1", "note": "[example 1, 3-[bis(indol-3-yl)methyl]pyridine]", "values": [
      {"measurement": "Toxicity", "setting": "mouse, in vivo, ip, 200 mg/kg/day", "value": "0/9"},
      {"measurement": "Mean weight (mg) of metastases (S.D.)", "setting": "pulmonary metastases, 200 mg/kg/day intraperitoneally, post-surgery treatment day 12-15, 18-22 after tumor injection, control 197.6 (55.0)", "value": "99.2 (63.5) mg"},
      {"measurement": "Mean No. of metastases (S.D.)", "setting": "pulmonary metastases, 200 mg/kg/day intraperitoneally, post-surgery treatment day 12-15, 18-22 after tumor injection, suspended in 0.5% methylcellulose, control 65.9 (11.7)", "value": "31.4 (14.0)"}
    ]}
  ]
}
